The source of these data is patent US6720423B2, “Dihydrobenzofuran and dihydrobenzothiophene 2,4-pentadienoic acid derivatives having selective activity for retinoid X (RXR) receptors” (Allergan, Inc., priority 2002, dated 2004).

One test concerns the target T1, RXRα (Homo sapiens, UniProt P19793).
T1 construct: the only RXRα plasmid printed
T1 sequence (P19793 227-462 limits assumed): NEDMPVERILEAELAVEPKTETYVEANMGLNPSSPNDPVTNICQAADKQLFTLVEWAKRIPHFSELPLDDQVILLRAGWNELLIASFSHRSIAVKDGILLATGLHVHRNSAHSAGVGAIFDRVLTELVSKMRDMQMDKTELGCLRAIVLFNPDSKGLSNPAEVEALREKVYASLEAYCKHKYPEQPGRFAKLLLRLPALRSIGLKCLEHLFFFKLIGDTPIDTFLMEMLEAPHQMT
Description: receptor transactivation assay, RXRα. As to conditions: first entry of cell, read-out: RXR Trans. EC50 (nM) α. It counts as cell-based. The source says:
(§1) A holoreceptor transactivation assay and a ligand binding assay which measure the antagonist/agonist like activity of the compounds of the invention, or their ability to bind to the several retinoid receptor subtypes, respectively, are described in published PCT Application No. WO WO93/11755 (particularly on pages 30-33 and 37-41) published on Jun. 24, 1993, the specification of which is also incorporated herein by reference. A detailed experimental procedure for holoreceptor transactivations has been described by Heyman et al. Cell 68, 397-406, (1992); Allegretto et al. J. Biol. Chem. 268, 26625-26633, and Mangelsdorf et al. The Retinoids: Biology, Chemistry and Medicine, pp 319-349, Raven Press Ltd., New York, which are expressly incorporated herein by reference. The results obtained in this assay are expressed in EC50 numbers, as they are also in the chimeric receptor transactivation assay. The results of ligand binding assay are expressed in Kd numbers. (See Cheng et al. Biochemical Pharmacology Vol. 22 pp 3099-3108, expressly incorporated herein by reference.)

The target of another test is T2, RARβ (Homo sapiens, UniProt P10826).
T2 sequence (P10826 1-455): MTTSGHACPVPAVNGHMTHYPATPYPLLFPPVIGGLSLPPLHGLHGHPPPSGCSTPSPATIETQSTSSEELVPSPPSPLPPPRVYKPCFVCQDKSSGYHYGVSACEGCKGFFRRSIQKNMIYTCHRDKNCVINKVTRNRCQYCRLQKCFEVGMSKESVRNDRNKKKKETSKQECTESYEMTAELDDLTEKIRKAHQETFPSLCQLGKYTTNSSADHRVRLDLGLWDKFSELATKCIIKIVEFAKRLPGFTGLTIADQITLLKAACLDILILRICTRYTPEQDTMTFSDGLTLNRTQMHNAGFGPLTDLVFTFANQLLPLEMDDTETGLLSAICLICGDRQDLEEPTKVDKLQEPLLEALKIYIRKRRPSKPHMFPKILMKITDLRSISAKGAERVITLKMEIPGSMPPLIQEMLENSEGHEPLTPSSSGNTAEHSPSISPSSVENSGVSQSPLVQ
Put plainly: ligand binding assay, RARβ. As to conditions: second entry of cell, read-out: RAR Bind. Ki (nM) β.
Excerpt: as §1

Test [1] concerns the target T3, RXRβ (UniProt P28704).
T3 sequence (P28704 1-520): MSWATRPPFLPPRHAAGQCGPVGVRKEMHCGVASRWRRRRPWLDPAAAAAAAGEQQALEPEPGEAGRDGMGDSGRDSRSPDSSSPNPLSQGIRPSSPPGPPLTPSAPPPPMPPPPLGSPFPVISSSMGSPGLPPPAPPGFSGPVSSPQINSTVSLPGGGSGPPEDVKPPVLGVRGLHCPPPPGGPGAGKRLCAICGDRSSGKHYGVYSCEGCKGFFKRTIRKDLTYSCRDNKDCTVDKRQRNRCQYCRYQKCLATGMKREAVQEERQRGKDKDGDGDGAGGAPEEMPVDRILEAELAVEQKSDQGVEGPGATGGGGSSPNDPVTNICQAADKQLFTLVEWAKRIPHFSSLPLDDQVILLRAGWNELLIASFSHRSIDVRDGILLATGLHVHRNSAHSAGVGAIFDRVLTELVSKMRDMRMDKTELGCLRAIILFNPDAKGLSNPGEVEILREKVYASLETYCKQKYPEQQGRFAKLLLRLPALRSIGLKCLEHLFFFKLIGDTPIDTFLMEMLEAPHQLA
Description: ligand binding assay, RXRβ. The settings on record: last entry of cell, read-out: RXR Bind Ki (nM) β. The arrangement: other: RXRβ; last entry of cell.
Excerpt: as §1

Test [2] concerns the target T3, RXRβ. Description: receptor transactivation assay, RXRβ. It counts as cell-based. Further details: RXR Trans; other: RXRβ; first entry of cell. As to conditions: for EC50: first entry of cell, read-out: RXR Trans. EC50 (nM) β; for RXR Trans. β, number in parentheses after EC50: parenthesised number, not defined in the patent.
Excerpt: as §1

In general, EC50 refers to the concentration at which the effect is half-maximal. Broadly, the Ki is a measure of affinity in units of concentration, obtained from inhibition or displacement. Consider `CC(/C=C/[C@@H]1C[C@]1(C)c1ccc2c(c1)C(C)(C)CO2)=C\C(=O)O` [Compound 2, (6S,7S)-7-[5-(3,3-Dimethyl-2,3-dihydro-benzofuranyl)]-6.7-methano-3-methyl-octa-2E,4E-dienoic Acid], for which the EC50 at RXRα was 1.1 nM; on RXRβ [2] it was 9.8 nM. Besides, the Ki is greater than 10000 nM on RARβ and 21.1 nM on RXRβ [1]. The “RXR Trans. β, number in parentheses after EC50” value (“RXR Trans. β, number” for short) at RXRβ [2] is reported as 106.
The like results for `CC(/C=C/[C@@H]1C[C@]1(C)c1cc(C)c2c(c1)C(C)(C)CO2)=C\C(=O)O` [Compound 4, (6S,7S)-7-[5-(3,3,7-Trimethyl-2,3-dihydro-benzofuranyl)]-6,7-methano-3-methyl-octa-2E,4E-dienoic acid] were, in that order, 2.9 nM, 21 nM, greater than 10000 nM, 74 nM and 108.
Turning to `CCc1cc([C@@]2(C)C[C@H]2/C=C/C(C)=C/C(=O)O)cc2c1OCC2(C)C` [Compound 6], the EC50 came out at 0.3 nM at RXRα and 2.8 nM on RXRβ [2]. Further, the results for the Ki at RARβ and on RXRβ [1] were greater than 30000 nM and 1.8 nM, respectively. In addition, the “RXR Trans. β, number” value at RXRβ [2] is 75.
The like results for `CC(/C=C/[C@@H]1C[C@]1(C)c1cc(C(C)C)c2c(c1)C(C)(C)CO2)=C\C(=O)O` [Compound 8, (6S,7S)-7-[5-(3,3-Dimethyl-7-iso-propyl-2,3-dihydro-benzofuranyl)]-6,7-methano-3-methyl-octa-2E,4E-dienoic Acid] were, in that order, 0.159 nM, 0.66 nM, 41000 nM, 10.6 nM and 110.
On to `CC(/C=C/[C@@H]1C[C@]1(C)c1cc(C(C)(C)C)c2c(c1)C(C)(C)CO2)=C\C(=O)O` [Compound 10, (6S,7S)-7-[5-(3,3-Dimethyl-7-t-butyl-2,3-dihydro-benzofuranyl)]-6,7-methano-3-methyl-octa-2E,4E-dienoic acid], for which the EC50 on RXRα was 0.55 nM; at RXRβ [2] it was 12 nM. Further, the Ki on RARβ was found to be 19000 nM; on RXRβ [1], 7.1 nM. Moreover, the “RXR Trans. β, number” value at RXRβ [2] was 90.
The like results for `CC(/C=C/[C@@H]1C[C@]1(C)c1cc(CC(C)(C)C)c2c(c1)C(C)(C)CO2)=C\C(=O)O` [Compound 12, 5-{(1S,2S) 2-[7-(2,2-Dimethyl-propyl)-3,3-dimethyl-2,3-dihydro-benzofuran-5-yl]-2-methyl-cyclopropyl}-3-methyl-penta-2E,4E-dienoic Acid] were, in that order, 0.246 nM, 1.67 nM, 9510 nM, 1.5 nM and 93.
The like results for `CC(/C=C/[C@@H]1C[C@]1(C)c1cc(Cc2ccccc2)c2c(c1)C(C)(C)CO2)=C\C(=O)O` [Compound 14, (6S,7S)-7-[5-(7-Benzyl-3,3-dimethyl-2,3-dihydro-benzofuranyl)]-6,7-methano-3-methyl-octa-2E,4E-dienoic Acid] were, in that order, 0.086 nM, 0.515 nM, 4770 nM, 1.1 nM and 114.
The like results for `CC(/C=C/[C@@H]1C[C@]1(C)c1cc(CC2CCCCC2)c2c(c1)C(C)(C)CO2)=C\C(=O)O` [Compound 16, (6S,7S)-7-[5-(7-Cyclohexylmethyl-3,3-dimethyl-2,3-dihydro-benzofuranyl)]-6,7-methano-3-methyl-octa-2E,4E-dienoic Acid] were, in that order, 0.215 nM, 1.15 nM, 9290 nM, 1.9 nM and 85.
In the case of `CCCCCCc1cc([C@@]2(C)C[C@H]2/C=C/C(C)=C/C(=O)O)cc2c1OCC2(C)C` [Compound 18, (6S,7S)-7-[5-(3,3-Dimethyl-7-hexyl-2,3-dihydro-benzofuranyl)]-6,7-methano-3-methyl-octa-2E,4E-dienoic acid], the results for the EC50 at RXRα and at RXRβ [2] were 0.25 nM and 2.8 nM, respectively. Further, the Ki on RARβ came out at 15000 nM; on RXRβ [1] it was 5.1 nM. Moreover, the “RXR Trans. β, number” value on RXRβ [2] was found to be 96.
Regarding `CC(/C=C/[C@@H]1C[C@]1(C)c1cc(Br)c2c(c1)C(C)(C)CO2)=C\C(=O)O` [Compound 20, (6S,7S)-7-[5-(7-Bromo-3,3-dimethyl-2,3-dihydro-benzofuranyl)]-6,7-methano-3-methyl-octa-2E,4E-dienoic Acid], the concentration giving a half-maximal response (EC50) on RXRα turned out to be 2.4 nM; on RXRβ [2] it was 12 nM. For the same molecule, the values for the Ki on RARβ and at RXRβ [1] were greater than 10000 nM and 21.5 nM, respectively. Besides, the “RXR Trans. β, number” value at RXRβ [2] is reported as 108.
For `CC(/C=C/[C@@H]1C[C@]1(C)c1cc(-c2ccccc2)c2c(c1)C(C)(C)CO2)=C\C(=O)O` [Compound 22, 6S,7S)-7-[5-(3,3-Dimethyl-7-phenyl-2,3-dihydro-benzofuranyl)1-6,7-methano-3-methyl-octa-2E,4E-dienoic acid] the same measures were 8.3 nM, 28.4 nM, greater than 10000 nM, 9.6 nM and 75.
For `CC(/C=C/[C@@H]1C[C@]1(C)c1cc(-c2c(C)cccc2C)c2c(c1)C(C)(C)CO2)=C\C(=O)O` [Compound 24, 5-{(1 S 2S)-2-[7-(2,6-Dimethyl-phenyl)-3,3-dimethyl-2,3-dihydro-benzofuran-5-yl]-2-methyl-cyclopropyl}-3-methyl-penta-2E,4E-dienoic acid] the same measures were 0.52 nM, 6.7 nM, greater than 10000 nM, 2.6 nM and 125.
For `CC(/C=C/[C@@H]1C[C@]1(C)c1cc(-c2ccccc2C)c2c(c1)C(C)(C)CO2)=C\C(=O)O` [Compound 26, 5-[(1S,2S)-2-(3,3-Dimethyl-7-o-tolyl-2,3-dihydro-benzofuran-5-yl)-2-methyl-cyclopropyl]-3-methyl-penta-2E,4E-dienoic acid] the same measures were 0.2 nM, 0.65 nM, greater than 10000 nM, 1.9 nM and 99.
For `CCCCCCCc1ccccc1-c1cc([C@@]2(C)C[C@H]2/C=C/C(C)=C/C(=O)O)cc2c1OCC2(C)C` [Compound 28], the EC50 on RXRα was 594 nM; on RXRβ [2], greater than 1000 nM. For the same molecule, the results for the Ki on RARβ and on RXRβ [1] were 3740 nM and 111 nM, respectively.
Regarding `CC(/C=C/[C@@H]1C[C@]1(C)c1cc(-c2ccc(C(C)(C)C)cc2)c2c(c1)C(C)(C)CO2)=C\C(=O)O` [Compound 30, 5-{(1S, 2S)-2-[7-(4-tert-Butyl-phenyl)-3,3-dimethyl-2,3-dihydro-benzofuran-5-]-2-methyl-cyclopropyl}-3-methyl-pent-2E,4E-dienoic Acid], the EC50 on RXRα is 1520 nM; on RXRβ [2], greater than 1000 nM. The results for the Ki at RARβ and at RXRβ [1] were greater than 10000 nM and 441 nM, respectively. For the same molecule, the “RXR Trans. β, number” value at RXRβ [2] is recorded as 50.
